Test: xn = mol fraction of the nth substance listed
Conditions: 101.33 kPa, Liquid

ClC(Cl)Cl [trichloromethane] + CCO
mass density [kg/m3]
Conditions	288.15 K	293.15 K	298.15 K	303.15 K	308.15 K	313.15 K
x2 = 0	1498.08	1488.64	1479.15	1469.61	1460.03	1450.41
x2 = 0.0485	1472.17	1462.84	1453.46	1444.03	1434.55	1425.03
x2 = 0.0997	1444.69	1435.55	1426.28	1416.99	1407.64	1398.25
x2 = 0.1993	1389.44	1380.64	1371.77	1362.83	1353.83	1344.78
x2 = 0.2999	1331.01	1322.64	1314.2	1305.7	1297.12	1288.5
x2 = 0.4002	1269.36	1261.46	1253.5	1245.47	1237.37	1229.18
x2 = 0.4984	1204.89	1197.52	1190.08	1182.57	1174.99	1167.34
x2 = 0.5504	1168.93	1161.84	1154.69	1147.44	1140.19	1132.84
x2 = 0.6001	1133.49	1126.69	1119.83	1112.9	1105.9	1098.85
x2 = 0.6949	1062.09	1055.88	1049.61	1043.28	1036.89	1030.44
x2 = 0.794	981.537	976.02	970.455	964.839	959.165	953.436
x2 = 0.8503	933.183	927.998	922.772	917.5	912.175	906.798
x2 = 0.9001	888.356	883.494	878.595	873.653	868.659	863.612
